# According to patent US12528840B2, “Transcription active complex targeting cancer drug from viral protein sequence” (The Regents of the University of California, priority 2020, dated 2026):
# Tests used:
# [1] = test system: MYC; assay: SLAM-seq, MYC transcription; type: cell-based; conditions: 24 μM, 30 min then 4sU 1 hour
# Experimental: FIG. 9. Profiling Peptide targets with Thiol(SH)-linked alkylation for the metabolic sequencing of RNA (SLAM seq). Differences in active transcription in presence of peptide drug was examined. […] Total RNA-sequence performed 24 hours after drug incubation.
# Thiol(SH)-linked alkylation for the metabolic sequencing of RNA (SLAM seq), an orthogonal-chemistry-based RNA sequencing technology detects 4-thiouridine (s4U) incorporation in RNA species at single-nucleotide resolution. Using SLAM-seq method, BC-1 cells were incubated with peptide drug and peptide with three amino acid substitute to alanine was used as a control peptide. Peptide drug was incubated in BC-1 cell culture (24 μM) and after 30 min drug incubation, 4sU (300 μM in final concentration) was added into culture media for 1 hour. Total RNA was isolated in the end of 1 hour 4sU incubation and alkylated RNA samples were subjected to SLAM-seq. Samples were duplicated and changed gene expression vs mock-treated cells (P<0.05) was marked in red. […] IGV viewer was used to visualize sequence reads at MYC region (Chr. 8). […] Log 2 fold changes and adjusted P-value of MYC down regulation in both BCBL-1 and BC-1 cells are depicted in underneath of panel.
# [2] = test system: MYC; assay: qRT-PCR of MYC expression; type: cell-based; conditions: qRT-PCR with specific primers
# Experimental: FIGS. 1A-H. Viral protein sequence based cancer drug. (FIG. 1A) Discovery of hijacking transcription machinery in KSHV reactivating cells (Chen et al., J. Virol 2017). […] (FIG. 1B) Reporter assay. KSHV ORF50 overexpression inhibits MYC activation. (FIG. 1C) Chromatin immunoprecipitation with Mass Spectrometry. Proteins inducibly interact with both ORF50 and RNA polII are shown. […] (FIG. 1E) Mapping of interacting domain. GST-pull down was performed to identify NCoA2 binding domains. Purified NCoA2 was made from recombinant baculovirus infected cells and KSHV ORF50 deletion proteins were made in E. coli. Peptides are then generated as TAT-fusion for cell penetration. (FIG. 1F) ChIP-seq and RNA-seq. ChIP-seq was performed to identify NCOA2 target genes in primary effusion lymphoma cells. NCoA2 localization is highly associated with active genes and localizes with RNA pol II at enhancer regions. […] The qRT-PCR was performed with specific primers. (FIG. 1H) Gene set enrichment analyses (GSEA). RNA sequencing was performed with peptide-treated PEL cells. […] (FIG. 1I) The peptide drug. Wt peptide or mutant peptide was incubated in culture media. Forty-eight hours later, live cells were measured by applying MTS. Cell viability was compared with no-treated samples. No treated sample was set as 1.
# [3] = test system: activated CD3 T cells; assay: Cytokine production by anti-CD3 stimulated PBMCs (Luminex 10 plex); type: cell-based, human; conditions: 32 μM, 48 hours, vs untreated and control peptide-treated cultures
# Experimental: The effect of the peptide on cytokine production by human lymphoctyes were studied by an in vitro culture system. PBMCs were stimulated with anti-CD3 antibody in the presence of PBS, MBK50 (32 μM) or Mutant peptide (32 μM) in duplicates for 48 hours. The supernatant was recovered and assayed for 10 common cytokines 4-1(3, IL-2, IL-4, IL-5, IL-6, IL-8, IL-10, GM-CSF, IFNγ, TNFα) with Luminex using human 10 plex beads assay kit (Invitrogen).
# [4] = test system: monocyte-derived dendritic cells; assay: Monocyte-derived dendritic cell live/dead staining and culture images; type: cell-based, human
# Experimental: FIG. 14. Effect of MBK50 on CD14+ monocytes. FIG. 14(A) A scheme of the experimental procedure. Monocyte-derived dendritic cells were prepared from magnetic beads sorted CD14+ cells (from PBMC of a healthy donor) after culture for 4 days in the presence of GM-CSF+IL-4 (each 50 ng/ml). Cells were washed and cultured at 1×10^6/ml in a 96 well plate (200 μl/well in triplicates) without or with LPS (100 ng/ml), poly I:C (10 μg/ml), or sCD40L (1 μg/ml) in the presence of MBK50 (16 or 32 μM) or mutant peptide (32 μM) for 2 days. Live cells were determined using live/dead staining followed by flow cytometry analysis. FIG. 14(B) A representative flow profile with the gating strategy for live cells is shown. FIG. 14(C) Averages percentage of live cells for each culture condition are shown. *p<0.05, **p<0.01, ***p<0.001, ****p<0.0001
# FIG. 15. Representative images of monocyte derived dendritic cells (MDCs) from two human healthy donors after treatment with MBK50, mutant peptide, or PBS for two days in U-bottom 96 well culture. The diameter of the ring approximately corresponds to the cell volume/numbers in each well.
# Similar experiments were also performed with monocyte-derived dendritic cells as a model of human dendritic cells. […] Live cells were determined as shown above using live/dead staining.
# [5] = test system: SWI/SNF components; assay: ELISA-based binding assay with purified SWI/SNF components; conditions: biotin-conjugated peptide, HRP-streptavidin detection
# From the text: FIG. 17(a) SDS-PAGE analysis of five SWI/SNF components individually prepared from baculovirus infected Sf9 cells. FIG. 17(b) A schematic illustration of ELISA assay to evaluate VGN50 and SWI/SNF interaction. FIG. 17(c) Analysis of VGN50 binding to SWI/SNF components by ELISA. Peptide binding measured as OD values at 450 nm are shown. Mean OD values were compared between the VGN50 and Mut-P in each concentration using unpaired t-test. **p<0.01, *p<0.05, NS: no significance. Data are presented as mean±SD.
# To confirm the basis of VGN50 (a.k.a. MBK50) mechanism of action, the biochemical interaction between VGN50 and SWI/SNF proteins (i.e., VGN50 target molecules), were examined by ELISA-based binding assays using purified 5 individual SWI/SNF components prepared from baculovirus-infected Sf9 cells (FIG. 17a). Increasing concentrations of biotin-conjugated VGN50 or Mut-P were incubated in an ELISA plate coated with each SWI/SNF component, and the bound peptides were detected by HRP-streptavidin (FIG. 17b).
sequence,measurement,setting,value
LSSILQGLYQLDT [MBK50],MYC transcript species containing T→C mutation (Myc transcription),[1],significantly decreased
same,MYC transcript species containing T→C mutation (Myc transcription),[1]; listed as peptide drug,strongly down-regulated
same,MYC expression,[2],Down modulation
same,"cytokine levels in supernatant, all detected except IL-10 and TNFα",[3],significantly reduced
same,percentage of live cells,"[4]; 16 or 32 μM, 2 days, PBS, LPS, sCD40L conditions, vs control peptide or PBS",significantly reduced
same,appearance of MDCs in culture,"[4]; two days, U-bottom 96 well culture",not clumped and were more spread and adhesive
same,lowest concentration at which peptide bound the 5 SWI/SNF components,[5],50 nM
